Source: US12570655B2, “Cysteine covalent modifiers of AKT1 and uses thereof” (Terremoto Biosciences, Inc., priority 2023, dated 2026)
Like-named read-outs stand apart in the source and are kept apart here.

Legend:
Format in all cases: cell-based
[1] = test system: LAPC4 prostate cancer cells; assay: Antiproliferative effects in LAPC4 cells (CellTiter Glo); conditions: LAPC4 cells (AKT1 E17K allele), read-out: LAPC4 proliferation IC50
Description: Antiproliferative Effects in LAPC4 Cells.
LAPC4 prostate cancer cells (Klein, K. A. et al. Nat Med 1997, 3, 402-408), which express the AKT1 E17K allele, were grown in IMDM media (Hyclone) supplemented with 12% FBS+1% P/S. To assess compound effects on growth, 1,000 cells/well were seeded in 384 well assay plates, incubated with compound dilutions dissolved in DMSO. After 72 h, intracellular ATP content was assessed with CellTiter Glo reagent (Promega) according to the manufacturer's instructions. IC50 values were calculated by fitting luminescence values to a log(inhibitor) vs. response Hill equation.

[2] = target: T1, AKT2 (Homo sapiens, UniProt P31751); assay: Live cell AKT2 target engagement by NanoBRET competitive probe displacement; conditions: HEK293 cells transfected with kinase-NanoLuciferase fusion, 2 h at 37° C.
T1 construct: expressed in transfected cells; host or cells: HEK293
T1 sequence (P31751 whole entry, the tested form may be a part): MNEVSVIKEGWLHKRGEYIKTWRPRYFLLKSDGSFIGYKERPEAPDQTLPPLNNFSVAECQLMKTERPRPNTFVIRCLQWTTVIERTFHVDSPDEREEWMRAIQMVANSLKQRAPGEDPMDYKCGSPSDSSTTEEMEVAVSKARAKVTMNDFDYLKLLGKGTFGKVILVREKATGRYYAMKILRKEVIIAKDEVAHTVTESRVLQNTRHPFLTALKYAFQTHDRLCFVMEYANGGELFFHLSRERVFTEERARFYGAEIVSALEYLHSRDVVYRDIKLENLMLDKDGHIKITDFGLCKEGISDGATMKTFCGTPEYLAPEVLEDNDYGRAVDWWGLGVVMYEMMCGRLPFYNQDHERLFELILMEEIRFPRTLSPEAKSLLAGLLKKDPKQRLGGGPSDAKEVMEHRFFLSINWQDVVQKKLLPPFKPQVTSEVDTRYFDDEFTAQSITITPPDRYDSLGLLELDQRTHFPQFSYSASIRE
Description: (§1) Determining Live Cell AKT1 E17K, AKT1 WT, and AKT2 Target Engagement by NanoBRET Competitive Probe Displacement.
(§2) Live cell target engagement assays were performed as described (Vasta, J. D. et al. Cell Chem Biol 2018, 25(11), 206-214). Briefly, HEK293 cells were transfected with plasmids encoding kinase-NanoLuciferase fusion proteins overnight. Cells were then treated with serial dilutions of compound and an ˜EC50 concentration of fluorescently-tagged ATP-competitive tracer (Promega). After incubation for 2 h at 37° C., luciferase substrate and extracellular luciferase inhibitor were added to all wells, and luminescent intensity at 460 nm and 600 nm were measured on a multimode plate-reader. The ratio of E600/E460 was calculated to give the tracer engagement signal (BRET). IC50 values were calculated by fitting BRET values to a log(inhibitor) vs. response Hill equation.

[3] = target: T2, AKT1 E17K (Homo sapiens, UniProt P31749, E17K); assay: Live cell AKT1 E17K target engagement by NanoBRET competitive probe displacement; conditions: HEK293 cells transfected with kinase-NanoLuciferase fusion, 2 h at 37° C.
T2 construct: expressed in transfected cells; host or cells: HEK293
T2 sequence (P31749 whole entry E17K, the tested form may be a part): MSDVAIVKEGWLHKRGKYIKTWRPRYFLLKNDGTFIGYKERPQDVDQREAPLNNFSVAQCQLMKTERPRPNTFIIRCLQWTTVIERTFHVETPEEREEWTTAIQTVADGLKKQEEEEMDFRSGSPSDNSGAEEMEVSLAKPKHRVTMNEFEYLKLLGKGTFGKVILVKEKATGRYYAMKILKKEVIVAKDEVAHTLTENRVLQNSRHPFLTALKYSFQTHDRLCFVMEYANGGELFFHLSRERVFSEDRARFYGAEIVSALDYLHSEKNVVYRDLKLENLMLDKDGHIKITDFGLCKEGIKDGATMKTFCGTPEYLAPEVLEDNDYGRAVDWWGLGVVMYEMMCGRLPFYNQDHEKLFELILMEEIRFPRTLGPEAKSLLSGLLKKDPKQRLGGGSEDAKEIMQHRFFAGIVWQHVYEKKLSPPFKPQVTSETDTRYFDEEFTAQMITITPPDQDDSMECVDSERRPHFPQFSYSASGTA
Description: as §1, §2

[4] = target: T3, AKT1 WT (Homo sapiens, UniProt P31749); assay: Live cell AKT1 WT target engagement by NanoBRET competitive probe displacement; conditions: HEK293 cells transfected with kinase-NanoLuciferase fusion, 2 h at 37° C.
T3 construct: expressed in transfected cells; host or cells: HEK293
T3 sequence (P31749 whole entry, the tested form may be a part): as the sequence (P31749 whole entry E17K, the tested form may be a part) above, with K17E counted along it
Description: as §1, §2

SMILES | IC50 ([1]; 72 h) [µM] | IC50 [2] [µM] | IC50 [3] [µM] | IC50 ([1]; Homo sapiens, LAPC4, 72 h) [µM] | IC50 [4] [µM]
C=CC(=O)N1CCC(N[C@@H]2c3ccc(-n4c(-c5ccccc5F)nc5ccc(-n6cccn6)nc54)cc3CC2F)C[C@H]1C (single isomer, unassigned) [Example 318, 1-((2R,4*)-4-(((1R,2*)-2-fluoro-5-(2-(2-fluorophenyl)-5-(1H-pyrazol-1-yl)-3H-imidazo[4,5-b]pyridin-3-yl)-2,3-dihydro-1H-inden-1-yl)amino)-2-methylpiperidin-1-yl)prop-2-en-1-one] | 0.626 | 0.111 | 0.0297 | – | –
C=CC(=O)N1CCC(N[C@@H]2c3ccc(-n4c(-c5ccccc5)nc5ccc(-n6cccn6)nc54)cc3CC2F)CC1C(F)F (single isomer, unassigned) [Example 328, 1-((2*,4*)-2-(difluoromethyl)-4-(((1R,2*)-2-fluoro-5-(2-phenyl-5-(1H-pyrazol-1-yl)-3H-imidazo[4,5-b]pyridin-3-yl)-2,3-dihydro-1H-inden-1-yl)amino)piperidin-1-yl)prop-2-en-1-one] | – | 0.0903 | 0.0177 | – | –
C=CC(=O)N1CCC(N[C@@H]2c3ccc(-n4c(-c5ccccc5F)nc5ccc(-n6cccn6)nc54)cc3CC2F)C[C@H]1C (single isomer, unassigned) [Example 316, 1-((2R,4*)-4-(((1R,2*)-2-fluoro-5-(2-(2-fluorophenyl)-5-(1H-pyrazol-1-yl)-3H-imidazo[4,5-b]pyridin-3-yl)-2,3-dihydro-1H-inden-1-yl)amino)-2-methylpiperidin-1-yl)prop-2-en-1-one] | 0.54 | 0.112 | 0.0192 | – | –
C=CC(=O)N1C[C@H]2COC[C@@H](C1)C2N[C@H]1CCc2cc(-n3c(-c4cccnc4N)nc4ccc(C5CC5)nc43)ccc21 (single isomer, unassigned) [Example 172, 1-((1R,5S,9*)-9-(((S)-5-(2-(2-aminopyridin-3-yl)-5-cyclopropyl-3H-imidazo[4,5-b]pyridin-3-yl)-2,3-dihydro-1H-inden-1-yl)amino)-3-oxa-7-azabicyclo[3.3.1]nonan-7-yl)prop-2-en-1-one] | 0.51 | 0.211 | 0.0509 | – | –
C=CC(=O)N1CCC(N[C@H]2CCc3cc(-n4c(-c5cccnc5N)nc5ccc(-n6cccn6)nc54)ccc32)CC1CC#N (single isomer, unassigned) [Example 339, 2-((2*,4*)-1-acryloyl-4-(((S)-5-(2-(2-aminopyridin-3-yl)-5-(1H-pyrazol-1-yl)-3H-imidazo[4,5-b]pyridin-3-yl)-2,3-dihydro-1H-inden-1-yl)amino)piperidin-2-yl)acetonitrile] | – | 0.0788 | 0.0327 | – | –
C=CC(=O)N1CCC(N[C@@H]2c3c(F)cc(-n4c(-c5cccnc5N)nc5ccc(-n6cccn6)nc54)cc3CC2F)CC1 (single isomer, unassigned) [Example 342, 1-(4-(((1R,2*)-5-(2-(2-aminopyridin-3-yl)-5-(1H-pyrazol-1-yl)-3H-imidazo[4,5-b]pyridin-3-yl)-2,7-difluoro-2,3-dihydro-1H-inden-1-yl)amino)piperidin-1-yl)prop-2-en-1-one] | – | 0.194 | 0.0239 | – | –
C=CC(=O)N1CCC(N[C@@H]2c3ccc(-n4c(-c5ccccc5F)nc5ccc(-n6cccn6)nc54)cc3CC2F)C[C@H]1C (single isomer, unassigned) [Example 319, 1-((2R,4*)-4-(((1R,2*)-2-fluoro-5-(2-(2-fluorophenyl)-5-(1H-pyrazol-1-yl)-3H-imidazo[4,5-b]pyridin-3-yl)-2,3-dihydro-1H-inden-1-yl)amino)-2-methylpiperidin-1-yl)prop-2-en-1-one] | 1.6 | 0.301 | 0.0496 | – | –
C=CC(=O)N1CCC(N[C@@H]2c3ccc(-n4c(-c5ccccc5)nc5ccc(-n6ccc(F)n6)nc54)cc3CC2F)CC1 (stereo partly drawn) [Example 332, 1-(4-(((1R,2*)-2-fluoro-5-(5-(3-fluoro-1H-pyrazol-1-yl)-2-phenyl-3H-imidazo[4,5-b]pyridin-3-yl)-2,3-dihydro-1H-inden-1-yl)amino)piperidin-1-yl)prop-2-en-1-one] | – | 0.481 | 0.0279 | – | –
C=CC(=O)N1CCC(N[C@H]2CCc3cc(-n4c(-c5cccnc5N)nc5ccc(C(C)C)nc54)ccc32)CC1 [Example 242, 1-(4-{[(1S)-5-[2-(2-aminopyridin-3-yl)-5-isopropylimidazo[4,5-b]pyridin-3-yl]-2,3-dihydro-1H-inden-1-yl]amino}piperidin-1-yl)prop-2-en-1-one] | – | – | 0.0304 | 0.756 | 1.43

Compounds with a lower IC50 [3], results first:

IC50 ([1]; 72 h) [µM] | IC50 [2] [µM] | IC50 [3] [µM] | IC50 ([1]; Homo sapiens, LAPC4, 72 h) [µM] | IC50 [4] [µM] | SMILES
– | 0.143 | 0.0126 | 0.614 | – | C=CC(=O)N1CCC(N[C@@H]2c3ccc(-n4c(-c5ccccc5)nc5ccc(-n6cccn6)nc54)cc3CC2F)CC1 (single isomer, unassigned) [Example 249, 1-(4-(((1R,2*)-2-fluoro-5-(2-phenyl-5-(1H-pyrazol-1-yl)-3H-imidazo[4,5-b]pyridin-3-yl)-2,3-dihydro-1H-inden-1-yl)amino)piperidin-1-yl)prop-2-en-1-one]
0.559 | 0.134 | 0.0147 | – | – | C=CC(=O)N1CCC(N[C@@H]2c3ccc(-n4c(-c5ccccc5)nc5ccc(-n6cccn6)nc54)cc3CC2F)CC1 (single isomer, unassigned) [Example 250, 1-(4-(((1R,2*)-2-fluoro-5-(2-phenyl-5-(1H-pyrazol-1-yl)-3H-imidazo[4,5-b]pyridin-3-yl)-2,3-dihydro-1H-inden-1-yl)amino)piperidin-1-yl)prop-2-en-1-one]
– | – | 0.00846 | 0.089 | 0.0655 | C=CC(=O)N1CCN(CC2CCc3cc(-n4c(-c5cccnc5N)nc5ccc(-n6cccn6)nc54)ccc32)CC1 (centres unmarked) [Example 174, 1-(4-((5-(2-(2-aminopyridin-3-yl)-5-(1H-pyrazol-1-yl)-3H-imidazo[4,5-b]pyridin-3-yl)-2,3-dihydro-1H-inden-1-yl)methyl)piperazin-1-yl)prop-2-en-1-one]
– | – | 0.0125 | 0.16 | 0.114 | C=CC(=O)N1CCC(N[C@H]2CCc3cc(-n4c(-c5cccnc5N)nc5ccc(N6CCCC6)nc54)ccc32)CC1 [Example 170, 1-(4-{[(1S)-5-[2-(2-aminopyridin-3-yl)-5-(pyrrolidin-1-yl)imidazo[4,5-b]pyridin-3-yl]-2,3-dihydro-1H-inden-1-yl]amino}piperidin-1-yl)prop-2-en-1-one]
0.0151 | – | 0.0109 | – | 0.0221 | C=CC(=O)N1CCC(N[C@@H]2c3ccc(-n4c(-c5cccnc5N)nc5ccc(-n6cccn6)nc54)cc3CC2F)CC1C(F)F (single isomer, unassigned) [Example 303, 1-((2*,4*)-4-(((1R,2*)-5-(2-(2-aminopyridin-3-yl)-5-(1H-pyrazol-1-yl)-3H-imidazo[4,5-b]pyridin-3-yl)-2-fluoro-2,3-dihydro-1H-inden-1-yl)amino)-2-(difluoromethyl)piperidin-1-yl)prop-2-en-1-one]
0.00969 | – | 0.00487 | – | 0.0138 | C=CC(=O)N1CCC(N[C@H]2CCc3cc(-n4c(-c5cccnc5N)nc5ccc(-n6cccn6)nc54)ccc32)C[C@@H]1C(F)F (single isomer, unassigned) [Example 213, 1-((2R,4*)-4-(((S)-5-(2-(2-aminopyridin-3-yl)-5-(1H-pyrazol-1-yl)-3H-imidazo[4,5-b]pyridin-3-yl)-2,3-dihydro-1H-inden-1-yl)amino)-2-(difluoromethyl)piperidin-1-yl)prop-2-en-1-one]
0.0563 | – | 0.00565 | – | 0.035 | C=CC(=O)N1C[C@H]2CCC[C@@H](C1)C2N[C@H]1CCc2cc(-n3c(-c4cccnc4N)nc4ccc(-n5cccn5)nc43)ccc21 (single isomer, unassigned) [Example 188, 1-((1R,5S,9*)-9-(((S)-5-(2-(2-aminopyridin-3-yl)-5-(1H-pyrazol-1-yl)-3H-imidazo[4,5-b]pyridin-3-yl)-2,3-dihydro-1H-inden-1-yl)amino)-3-azabicyclo[3.3.1]nonan-3-yl)prop-2-en-1-one]
– | – | 0.0102 | 0.0584 | 0.0715 | C=CC(=O)NC1CCN(C2CCc3cc(-n4c(-c5cccnc5N)nc5ccc(-n6cccn6)nc54)ccc32)CC1 (single isomer, unassigned) [Example 193, N-{1-[(1*)-5-[2-(2-aminopyridin-3-yl)-5-(pyrazol-1-yl)imidazo[4,5-b]pyridin-3-yl]-2,3-dihydro-1H-inden-1-yl]piperidin-4-yl}prop-2-enamide]
